From patent US3939043A, “Antibiotics designated XK-88 series and process for production thereof” (Abbott Laboratories, priority 1973, dated 1976)
≈ marks a conversion by molar mass, not a printed value. Where two headings read alike, the source gives them in different places.

Experiments:
Solubility = format: physicochemical; settings: for solubility in organic solvents: acetone, ethyl acetate, ethyl ether, chloroform, etc.
Escherichia coli ATCC 26 = assay: In vitro antibacterial spectrum by agar dilution method (pH 8.0); format: cell-based
[1] = system: Bacillus cereus ATCC 9634; assay: as above; format: cell-based; settings: ATCC9634, read-out: Minimum Inhibitory Concentration (M.I.C.)
[2] = system: Staphylococcus aureus KY 8957; assay: as above; format: cell-based; settings: KY8957, Staphylococcus aureus KY 8957 (resistant to Chloramphenicol, Streptomycin, Kanamycin, Paromomycin, Nebramycin, Tobramycin and Tetracycline), read-out: Minimum Inhibitory Concentration (M.I.C.)
[3] = system: Staphylococcus aureus KY 8942; assay: as above; format: cell-based
Escherichia coli KY 8348 = assay: as above; format: cell-based; settings: KY8348, Escherichia coli KY 8348 (resistant to Streptomycin and Gentamicin), read-out: Minimum Inhibitory Concentration (M.I.C.)
[4] = system: Proteus vulgaris ATCC 6897; assay: as above; format: cell-based
Escherichia coli KY 8314 = assay: as above; format: cell-based; settings: KY8314, Escherichia coli KY 8314 (resistant to Streptomycin), read-out: Minimum Inhibitory Concentration (M.I.C.)
Excerpt: (§1) The in vitro antibacterial spectra of the XK-88 antibiotics by agar dilution method (pH 8.0) is illustrated in the following Table 4:
(§2) (Minimum Inhibitory Concentration (μg/ml)
(§3) by agar dilution method (pH 8.0)

[5] = system: Shigella sonnei ATCC 9290; assay: as above; format: cell-based; settings: ATCC9290, read-out: Minimum Inhibitory Concentration (M.I.C.)
Excerpt: as §1, §2, §3

Escherichia coli KY 8331 = assay: as above; format: cell-based; settings: KY8331, Escherichia coli KY 8331 (resistant to Kanamycin, Ribostamycin, Neomycin, Paromomycin, Lividomycin and Nebramycin), read-out: Minimum Inhibitory Concentration (M.I.C.)
Excerpt: as §1, §2, §3

Escherichia coli KY 8310 = assay: as above; format: cell-based; settings: KY8310, Escherichia coli KY 8310 (resistant to Chloramphenicol, Streptomycin, Kanamycin, Gentamicin, Paromomycin, Nebramycin, Tobramycin, Spectinomycin and Tetracycline), read-out: Minimum Inhibitory Concentration (M.I.C.)
Excerpt: as §1, §2, §3

[6] = system: Klebsiella pneumoniae ATCC 10031; assay: as above; format: cell-based; settings: ATCC10031, read-out: Minimum Inhibitory Concentration (M.I.C.)
[7] = system: Streptococcus faecalis ATCC 10541; assay: as above; format: cell-based; settings: Enterococcus faecalis
[8] = system: Gram-positive and Gram-negative bacteria; assay: Antibacterial activity (summary of Table 4); format: cell-based; settings: versus the said known antibiotics; from Table 4
Excerpt: (§4) The in vitro antibacterial spectra of the XK-88 antibiotics by agar dilution method (pH 8.0) is illustrated in the following Table 4: […]

Escherichia coli = assay: Antibacterial activity against resistant bacteria (summary of Table 4); format: cell-based; settings: Escherichia coli normally resistant to various known antibiotics
Excerpt: as §4

Staphylococcus aureus = assay: as above; format: cell-based; settings: Staphylococcus aureus normally resistant to various known antibiotics
Excerpt: as §4

Escherichia coli KY 8327 = assay: In vitro antibacterial spectrum by agar dilution method (pH 8.0); format: cell-based; settings: KY8327, Escherichia coli KY 8327 (resistant to Kanamycin, Gentamicin, Nebramycin and Tobramycin), read-out: Minimum Inhibitory Concentration (M.I.C.)
[9] = system: Salmonella typhosa ATCC 9992; assay: as above; format: cell-based; settings: Salmonella enterica, pH 8, read-out: Minimum Inhibitory Concentration (M.I.C.)
[10] = system: Staphylococcus aureus KY 8950; assay: as above; format: cell-based; settings: KY8950, Staphylococcus aureus KY 8950 (resistant to Streptomycin, Tetracycline, Penicillin and sulfonamide), read-out: Minimum Inhibitory Concentration (M.I.C.)
Escherichia coli KY 8334 = assay: as above; format: cell-based; settings: KY8334, Escherichia coli KY 8334 (resistant to Kanamycin and Tobramycin), read-out: Minimum Inhibitory Concentration (M.I.C.)
[11] = system: Staphylococcus aureus KY 8956; assay: as above; format: cell-based; settings: KY8956, Staphylococcus aureus KY 8956 (resistant to Streptomycin, Paromomycin, Tetracycline, Kanamycin, Nebramycin, Tobramycin and Erythromycin), read-out: Minimum Inhibitory Concentration (M.I.C.)
[12] = system: Bacillus cereus var. mycoides ATCC 9463; assay: microbe, parasite or virus in culture; format: cell-based; settings: ATCC9463, pH 8, read-out: Minimum Inhibitory Concentration (M.I.C.)
[13] = system: Pseudomonas aeruginosa BMH No. 1; assay: In vitro antibacterial spectrum by agar dilution method (pH 8.0); format: cell-based
[14] = system: Staphylococcus aureus KY 8953; assay: as above; format: cell-based
[15] = system: Staphylococcus aureus ATCC 6538P; assay: as above; format: cell-based; settings: ATCC6538P, read-out: Minimum Inhibitory Concentration (M.I.C.)
[16] = system: Bacillus subtilis No. 10703; assay: as above; format: cell-based
[17] = ATCC26, Escherichia coli ATCC 26, agar dilution, pH 8.0, read-out: Minimum Inhibitory Concentration (M.I.C.)
[18] = KY8942, Staphylococcus aureus KY 8942 (resistant to Kanamycin, Paromomycin, Streptomycin, Gentamicin and Nebramycin), agar dilution, pH 8.0, read-out: Minimum Inhibitory Concentration (M.I.C.)
[19] = ATCC6897, Proteus vulgaris ATCC 6897, agar dilution, pH 8.0, read-out: Minimum Inhibitory Concentration (M.I.C.)
[20] = ATCC10541, pH 8, read-out: Minimum Inhibitory Concentration (M.I.C.)
[21] = BMHNO.1, Pseudomonas aeruginosa BMH No. 1, agar dilution, pH 8.0, read-out: Minimum Inhibitory Concentration (M.I.C.)
[22] = Staphylococcus aureus, KY8953, pH 8, read-out: Minimum Inhibitory Concentration (M.I.C.)
[23] = Bacillus subtilis No. 10703, agar dilution, pH 8.0, read-out: Minimum Inhibitory Concentration (M.I.C.)
[24] = KY8953, Staphylococcus aureus KY 8953 (resistant to Streptomycin, Kanamycin, Paromycin, Neomycin, Tetracycline, Erythromycin), agar dilution, pH 8.0, read-out: Minimum Inhibitory Concentration (M.I.C.)

Row | Structure (SMILES) | solubility in organic solvents (Solubility) | solubility in methanol and ethanol (Solubility) | solubility in water (Solubility) | MIC [1] | MIC [2] | MIC (Escherichia coli KY 8348) | MIC (Escherichia coli KY 8314) | MIC [5] | MIC (Escherichia coli KY 8331) | MIC (Escherichia coli KY 8310) | MIC [6] | cross resistance with known antibiotics [8] | antibacterial activity (Escherichia coli) | antibacterial activity (Staphylococcus aureus) | MIC (Escherichia coli KY 8327) | MIC [9] | MIC [10] | MIC (Escherichia coli KY 8334) | MIC [11] | MIC [12] | further results
1 | NCC1OC(OC2C(N)CC(N)C(OC3OCC(O)C(O)C3N)C2O)C(N)C(O)C1O (stereo not shown) [sulfate of XK-88-3] | insoluble | poorly soluble | very soluble |  |  |  |  |  |  |  |  |  |  |  |  |  |  |  |  |  | 
2 | NC1CC(N)C(OC2OC(CO)C(O)C(O)C2N)C(O)C1OC1OCC(O)C(O)C1N (stereo not shown) [sulfate of XK-88-1] | insoluble | poorly soluble | very soluble |  |  |  |  |  |  |  |  |  |  |  |  |  |  |  |  |  | 
3 | NCC1OC(OC2C(N)CC(N)C(OC3OCC(O)C(O)C3N)C2O)C(N)C(O)C1O (stereo not shown) [XK-88-3] |  |  |  | 2.7 µg/mL (≈ 5.95 µM) | 5.3 µg/mL (≈ 11.7 µM) | 0.09 µg/mL (≈ 0.198 µM) | 0.35 µg/mL (≈ 0.772 µM) | 0.35 µg/mL (≈ 0.772 µM) | 41.7 µg/mL (≈ 92 µM) | 83.3 µg/mL (≈ 184 µM) | 0.05 µg/mL (≈ 0.11 µM) | complete cross resistance does not always occur | strong antibacterial activity | strong antibacterial activity | 0.05 µg/mL (≈ 0.11 µM) | 0.18 µg/mL (≈ 0.397 µM) | 0.35 µg/mL (≈ 0.772 µM) | 5.3 µg/mL (≈ 11.7 µM) | 5.3 µg/mL (≈ 11.7 µM) | 2.7 µg/mL (≈ 5.95 µM) | MIC (Escherichia coli ATCC 26; [17]): 0.18 µg/mL (≈ 0.397 µM); MIC [3, 18]: 1.4 µg/mL (≈ 3.09 µM); MIC [4, 19]: 1.4 µg/mL (≈ 3.09 µM); MIC [7, 20]: > 83.3 µg/mL; MIC [13, 21]: > 416 µg/mL; MIC [14, 22]: > 83.3 µg/mL; MIC [15]: 0.18 µg/mL (≈ 0.397 µM); MIC [16, 23]: 2.7 µg/mL (≈ 5.95 µM)
4 | NC1CC(N)C(OC2OC(CO)C(O)C(O)C2N)C(O)C1OC1OCC(O)C(O)C1N (stereo not shown) [XK-88-1] |  |  |  | 6.6 µg/mL (≈ 14.5 µM) | 104 µg/mL (≈ 229 µM) | 13.5 µg/mL (≈ 29.7 µM) | 52.1 µg/mL (≈ 115 µM) | 52.1 µg/mL (≈ 115 µM) | > 416 µg/mL | > 416 µg/mL | 13.1 µg/mL (≈ 28.8 µM) | complete cross resistance does not always occur | strong antibacterial activity | strong antibacterial activity | 13.1 µg/mL (≈ 28.8 µM) | 26.1 µg/mL (≈ 57.4 µM) | 13.1 µg/mL (≈ 28.8 µM) | 1.65 µg/mL (≈ 3.63 µM) | 208 µg/mL (≈ 459 µM) | 3.3 µg/mL (≈ 7.26 µM) | MIC (Escherichia coli ATCC 26; Escherichia coli, ATCC26, pH 8, read-out: Minimum Inhibitory Concentration (M.I.C.)): 26.1 µg/mL (≈ 57.4 µM); MIC ([3]; Staphylococcus aureus, KY8942, pH 8, read-out: Minimum Inhibitory Concentration (M.I.C.)): 52.1 µg/mL (≈ 115 µM); MIC ([4]; Proteus vulgaris, ATCC6897, pH 8, read-out: Minimum Inhibitory Concentration (M.I.C.)): 416 µg/mL (≈ 916 µM); MIC [7, 20]: > 416 µg/mL; MIC ([13]; Pseudomonas aeruginosa, BMHNO.1, pH 8, read-out: Minimum Inhibitory Concentration (M.I.C.)): > 416 µg/mL; MIC [14, 22]: > 416 µg/mL; MIC [15]: 6.6 µg/mL (≈ 14.5 µM); MIC ([16]; Bacillus subtilis, NO.10703, pH 8, read-out: Minimum Inhibitory Concentration (M.I.C.)): 52.1 µg/mL (≈ 115 µM)
5 | COC1COC(OC2C(N)CC(N)C(OC3OC(CN)CC(O)C3N)C2O)C(N)C1N (stereo not shown) [sulfate of XK-88-5] | insoluble | poorly soluble | very soluble |  |  |  |  |  |  |  |  |  |  |  |  |  |  |  |  |  | 
6 | COC1COC(OC2C(N)CC(N)C(OC3OC(CN)CC(O)C3N)C2O)C(N)C1N (stereo not shown) [XK-88-5] |  |  |  | 1.31 µg/mL (≈ 2.91 µM) | 0.04 µg/mL (≈ 0.0888 µM) | 2.7 µg/mL (≈ 5.99 µM) | 0.33 µg/mL (≈ 0.732 µM) | 0.14 µg/mL (≈ 0.311 µM) | 20.8 µg/mL (≈ 46.2 µM) | > 41.6 µg/mL | < 0.05 µg/mL | complete cross resistance does not always occur | strong antibacterial activity | strong antibacterial activity | 0.04 µg/mL (≈ 0.0888 µM) | 0.09 µg/mL (≈ 0.2 µM) | 0.17 µg/mL (≈ 0.377 µM) | 0.66 µg/mL (≈ 1.46 µM) | < 0.02 µg/mL | 0.66 µg/mL (≈ 1.46 µM) | MIC (Escherichia coli ATCC 26; [17]): 0.08 µg/mL (≈ 0.178 µM); MIC [3, 18]: 0.66 µg/mL (≈ 1.46 µM); MIC [4, 19]: 0.53 µg/mL (≈ 1.18 µM); MIC ([7]; ATCC10541, Streptococcus faecalis ATCC 10541, agar dilution, pH 8.0, read-out: Minimum Inhibitory Concentration (M.I.C.)): 10.5 µg/mL (≈ 23.3 µM); MIC [13, 21]: 8.3 µg/mL (≈ 18.4 µM); MIC [14, 24]: 0.17 µg/mL (≈ 0.377 µM); MIC [15]: 0.07 µg/mL (≈ 0.155 µM); MIC [16, 23]: 0.04 µg/mL (≈ 0.0888 µM)
7 | NCC1CC(O)C(N)C(OC2C(N)CC(N)C(O)C2O)O1 (stereo not shown) [XK-88-2] |  |  |  | 2.7 µg/mL (≈ 8.81 µM) | 0.09 µg/mL (≈ 0.294 µM) | 0.18 µg/mL (≈ 0.588 µM) | 1.4 µg/mL (≈ 4.57 µM) | 1.4 µg/mL (≈ 4.57 µM) | 41.7 µg/mL (≈ 136 µM) | > 83.3 µg/mL | 0.18 µg/mL (≈ 0.588 µM) | complete cross resistance does not always occur | strong antibacterial activity | strong antibacterial activity | 0.18 µg/mL (≈ 0.588 µM) | 0.7 µg/mL (≈ 2.28 µM) | 0.35 µg/mL (≈ 1.14 µM) | 5.3 µg/mL (≈ 17.3 µM) | 0.09 µg/mL (≈ 0.294 µM) | 0.7 µg/mL (≈ 2.28 µM) | MIC (Escherichia coli ATCC 26; [17]): 0.35 µg/mL (≈ 1.14 µM); MIC [3, 18]: 1.4 µg/mL (≈ 4.57 µM); MIC [4, 19]: 1.4 µg/mL (≈ 4.57 µM); MIC [7, 20]: > 83.3 µg/mL; MIC [13, 21]: 10.5 µg/mL (≈ 34.3 µM); MIC [14, 24]: 0.35 µg/mL (≈ 1.14 µM); MIC [15]: 0.18 µg/mL (≈ 0.588 µM); MIC [16, 23]: 0.35 µg/mL (≈ 1.14 µM)
8 | NCC1CC(O)C(N)C(OC2C(N)CC(N)C(O)C2O)O1 (stereo not shown) [sulfate of XK-88-2] | insoluble | poorly soluble | very soluble |  |  |  |  |  |  |  |  |  |  |  |  |  |  |  |  |  | 
